Results on one compound are retold here after PMC8330100, “Similarities and differences in the localization, trafficking, and function of P-glycoprotein in MDR1-EGFP-transduced rat versus human brain capillary endothelial cell lines” (Fluids and Barriers of the CNS, 2021).

Data set [1] has as its system Pgp in RBE4-WT cells. Briefly: Rhodamine 123 uptake/accumulation assay, RBE4-WT cells. The data set is classed as cell-based, rat. As for the experimental part:
The functionality of Pgp in RBE4-WT, RBE4-MDR1-EGFP, hCMEC/D3-WT, hCMEC/D3-MDR1-EGFP cells, and primary rBCECs was analyzed by measuring the uptake of the fluorescent Pgp substrate Rho123 (Sigma-Aldrich). Cells were grown on 6-well plates and cultured for seven days in the presence or absence of doxycycline (1 µg/mL, Biochrom). […] Afterward, Rho123 (5 µM, dissolved in ethanol) was added and cells were incubated for another two hours. Rho123 transport was terminated by washing the cells twice with ice-cold PBS. Intracellular Rho123 concentration was determined by cell lysis in standard lysis buffer (25 mM Tris, 50 mM NaCl, 0.5% (w/v) sodium deoxycholate, 0.5% (w/v) Triton X-100) and measurement of fluorescence intensity with the FLUOstar OPTIMA (ex.: 485 nm, em.: 520 nm; BMG Labtech). Protein concentrations were determined using a BCA assay kit (Thermo Fisher Scientific). Rho123 uptake was obtained for each condition in triplicates and calculated as absolute fluorescence per mg protein. Additionally, Pgp functionality was expressed as multidrug resistance activity factor (MAF) as described by Huber et al.. This factor describes Pgp efflux activity based on differences in intracellular Rho123 accumulation in cells after Pgp inhibition compared to cells with active Pgp-mediated efflux. Thus, higher MAF values correlate with increased Pgp activity. For better comparison, differences in Rho123 accumulation are normalized to intracellular Rho123 levels in inhibitor-treated cells. MAF values for Pgp were calculated according to Huber et al. 2012 utilizing the following equation: MAF (%) = 100 · (MFITQ − MFI0)/(MFITQ) where MFITQ and MFI0 represent the mean fluorescence intensity of intracellular Rho123 in tariquidar (TQ)-treated and non-treated cells, respectively.

Data set [2] relates to Pgp in primary rBCEC monolayers. Briefly: Concentration equilibrium transport assay (CETA), primary rBCEC monolayers. It is filed as in vitro ADME, rat. Particulars: Rho123 2 µM; primary rBCECs. As for the experimental part:
For these experiments, a concentration equilibrium transport assay (CETA) was used, which is more sensitive to identify Pgp substrates than conventional bidirectional (concentration gradient) transport assays. In the CETA, the drug is added to both (apical and basolateral) sides of the monolayer, so that the initial drug concentration is the same in both compartments, thereby minimizing the effect of passive diffusion across the cell monolayer.
Additionally, vectorial drug transport across RBE4-MDR1-EGFP, hCMEC/D3-MDR1-EGFP, LLC-MDR1, and primary rBCEC monolayers was studied using 2 µM Rho123 as a fluorescent Pgp substrate essentially following the same protocol as described for [^3H]dLop. Transport was measured using a FLUOstar OPTIMA fluorescence reader (ex.: 485 nm, em.: 520 nm; BMG Labtech), analyzing samples from basolateral and apical compartments collected at the various time points.

With `COC(=O)c1ccccc1-c1c2ccc(=N)cc-2oc2cc(N)ccc12` [Rho123, rhodamine 123], in data set [1] (Rho123 5 µM, 2 h, without tariquidar), the “intracellular Rho123 accumulation” value is reported as 86,513 ± 2021 absolute fluorescence per mg p. Also, the “multidrug resistance activity factor (MAF) from intracellular Rho123 accumulation” value in data set [1] (with vs without tariquidar 0.5 µM) was 37.5% ± 4.2. In addition, the “vectorial transport in CETA (apical vs basolateral concentrations)” value in data set [2] is given as “significantly higher in the apical vs. basolateral chambers”.
